Source: ChEMBL document CHEMBL1909046, “DrugMatrix in vitro pharmacology data”

What was measured:
[1] = DRUGMATRIX: Sodium/nucleoside co-transporter radioligand binding (ligand: nitrobenzylthioinosine); format: cell membranes, Cavia porcellus, Dunkin-Hartley, Cerebral cortex, Membrane; details: Not Active = under 50% inhibition at 10 µM
[2] = molecular target: Beta-2 adrenergic receptor (Homo sapiens, UniProt P07550); experiment: DRUGMATRIX: Adrenergic beta2 radioligand binding (ligand: [3H] CGP-12177); format: cell membranes, Membrane; details: cho; Not Active = under 50% inhibition at 10 µM
Chain of Beta-2 adrenergic receptor (P07550 whole entry): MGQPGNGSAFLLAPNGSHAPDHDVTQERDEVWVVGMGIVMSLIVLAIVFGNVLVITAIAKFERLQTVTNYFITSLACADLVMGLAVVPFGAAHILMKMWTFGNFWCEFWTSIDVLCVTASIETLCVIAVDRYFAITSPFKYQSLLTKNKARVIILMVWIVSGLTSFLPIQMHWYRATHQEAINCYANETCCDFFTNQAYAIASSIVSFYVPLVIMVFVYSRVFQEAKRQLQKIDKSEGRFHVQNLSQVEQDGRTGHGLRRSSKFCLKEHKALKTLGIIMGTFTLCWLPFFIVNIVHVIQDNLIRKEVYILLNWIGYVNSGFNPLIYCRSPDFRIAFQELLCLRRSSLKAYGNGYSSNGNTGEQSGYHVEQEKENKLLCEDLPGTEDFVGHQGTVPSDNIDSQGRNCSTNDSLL

[3] = DRUGMATRIX: Calcium Channel Type L, Dihydropyridine radioligand binding (ligand: [3H] Nitrendipine); format: cell membranes, Rattus norvegicus, Wistar, Cerebral cortex, Membrane; details: Not Active = under 50% inhibition at 10 µM
[4] = DRUGMATRIX: Glutamate, Kainate radioligand binding (ligand: [3H] Kainic acid); format: cell membranes, Rattus norvegicus, Wistar, Brain, Membrane; details: Not Active = under 50% inhibition at 10 µM
[5] = DRUGMATRIX: Interleukin IL-1 radioligand binding (ligand: [125I] interleukin 1beta); format: cell membranes, Membrane; details: nih3t3; Not Active = under 50% inhibition at 10 µM
[6] = DRUGMATRIX: Leukotriene, BLT (LTB4) radioligand binding (ligand: [3H]LTB4); format: cell membranes, Membrane; details: u-937; Not Active = under 50% inhibition at 10 µM
[7] = molecular target: T1, Neuropeptide Y receptor type 1 (Homo sapiens, UniProt P25929); format: cell membranes, Membrane; details: sk-n-mc; also: in other assays of this panel Not Active means under 50% inhibition at 10 µM
T1 sequence (P25929 whole entry): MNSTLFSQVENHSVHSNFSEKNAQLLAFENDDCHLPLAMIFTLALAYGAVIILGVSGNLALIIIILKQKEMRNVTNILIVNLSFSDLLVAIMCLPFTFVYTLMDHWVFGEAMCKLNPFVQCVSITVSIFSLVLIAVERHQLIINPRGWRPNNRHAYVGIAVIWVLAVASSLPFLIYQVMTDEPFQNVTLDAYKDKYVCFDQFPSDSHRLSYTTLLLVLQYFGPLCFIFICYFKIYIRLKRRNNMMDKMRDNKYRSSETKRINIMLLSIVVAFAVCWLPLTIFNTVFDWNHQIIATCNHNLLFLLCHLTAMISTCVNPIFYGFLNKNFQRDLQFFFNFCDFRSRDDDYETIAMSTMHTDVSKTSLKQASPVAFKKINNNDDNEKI

Cytochrome P450 1A2 = molecular target: T2, Cytochrome P450 1A2 (Homo sapiens, UniProt P05177); details: bti-tn-5b1-4; also: in other assays of this panel Not Active means under 50% inhibition at 10 µM
T2 sequence (P05177 whole entry): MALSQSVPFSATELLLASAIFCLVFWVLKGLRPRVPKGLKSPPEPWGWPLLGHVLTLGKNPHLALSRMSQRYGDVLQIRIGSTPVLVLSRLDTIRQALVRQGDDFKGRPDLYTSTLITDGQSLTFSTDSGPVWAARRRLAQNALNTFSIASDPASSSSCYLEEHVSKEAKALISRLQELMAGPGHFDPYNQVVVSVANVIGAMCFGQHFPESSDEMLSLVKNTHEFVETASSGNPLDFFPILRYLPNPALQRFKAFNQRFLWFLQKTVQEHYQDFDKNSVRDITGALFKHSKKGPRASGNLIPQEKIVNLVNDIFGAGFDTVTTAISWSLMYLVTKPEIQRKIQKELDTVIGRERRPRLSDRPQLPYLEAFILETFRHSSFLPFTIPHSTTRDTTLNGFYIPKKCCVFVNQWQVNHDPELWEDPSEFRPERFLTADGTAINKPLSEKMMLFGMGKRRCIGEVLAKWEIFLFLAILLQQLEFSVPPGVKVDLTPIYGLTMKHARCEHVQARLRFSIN

Cytochrome P450 2E1 = Cytochrome P450 2E1 (Homo sapiens, UniProt P05181); details: bti-tn-5b1-4; also: in other assays of this panel Not Active means under 50% inhibition at 10 µM
Chain of Cytochrome P450 2E1 (P05181 whole entry): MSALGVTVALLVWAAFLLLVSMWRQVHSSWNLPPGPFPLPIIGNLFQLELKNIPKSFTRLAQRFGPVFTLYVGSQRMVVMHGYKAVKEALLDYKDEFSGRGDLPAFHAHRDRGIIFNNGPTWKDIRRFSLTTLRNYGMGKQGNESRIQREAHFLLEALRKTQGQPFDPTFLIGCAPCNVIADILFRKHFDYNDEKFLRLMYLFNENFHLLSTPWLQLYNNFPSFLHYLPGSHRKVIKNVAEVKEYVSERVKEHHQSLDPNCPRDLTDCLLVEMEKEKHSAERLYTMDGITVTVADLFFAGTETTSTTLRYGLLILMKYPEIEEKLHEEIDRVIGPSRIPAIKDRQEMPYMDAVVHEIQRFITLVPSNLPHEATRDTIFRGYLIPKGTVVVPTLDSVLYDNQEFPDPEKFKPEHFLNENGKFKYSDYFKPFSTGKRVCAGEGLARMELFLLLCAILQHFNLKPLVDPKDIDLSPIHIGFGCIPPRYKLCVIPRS

C[C@H]1C[C@H]2[C@@H]3CCC4=CC(=O)C=C[C@]4(C)[C@@]3(Cl)[C@@H](O)C[C@]2(C)[C@@]1(O)C(=O)CO [BECLOMETHASONE]
Not Active: IC50 [1] | Ki [1] | IC50 [2] | IC50 [3] | Ki [3] | IC50 [4] | Ki [4] | IC50 [5] | Ki [5] | IC50 [6] | Ki [6] | IC50 [7] | IC50 (Cytochrome P450 1A2) | Ki (Cytochrome P450 1A2) | IC50 (Cytochrome P450 2E1) | Ki (Cytochrome P450 2E1)

CCOC(=O)[C@H](CCc1ccccc1)N[C@H]1CCc2ccccc2N(CC(=O)O)C1=O [BENAZEPRIL]
Not Active: IC50 [1] | Ki [1] | IC50 [2] | IC50 [3] | Ki [3] | IC50 [4] | Ki [4] | IC50 [5] | Ki [5] | IC50 [6] | Ki [6] | IC50 [7] | IC50 (Cytochrome P450 1A2) | Ki (Cytochrome P450 1A2) | IC50 (Cytochrome P450 2E1) | Ki (Cytochrome P450 2E1)

Nc1c(CC(=O)O)cccc1C(=O)c1ccc(Br)cc1 [BROMFENAC]
Not Active: IC50 [1] | Ki [1] | IC50 [2] | IC50 [3] | Ki [3] | IC50 [4] | Ki [4] | IC50 [5] | Ki [5] | IC50 [6] | Ki [6] | IC50 [7] | IC50 (Cytochrome P450 1A2) | Ki (Cytochrome P450 1A2) | IC50 (Cytochrome P450 2E1) | Ki (Cytochrome P450 2E1)

CCCCN1CCCCC1C(=O)Nc1c(C)cccc1C.Cl (stereo unspecified) [BUPIVACAINE HYDROCHLORIDE]
Not Active: IC50 [1] | Ki [1] | IC50 [2] | IC50 [3] | Ki [3] | IC50 [4] | Ki [4] | IC50 [5] | Ki [5] | IC50 [6] | Ki [6] | IC50 [7] | IC50 (Cytochrome P450 1A2) | Ki (Cytochrome P450 1A2) | IC50 (Cytochrome P450 2E1) | Ki (Cytochrome P450 2E1)

O=C1CC2(CCCC2)CC(=O)N1CCCCN1CCN(c2ncccn2)CC1 [BUSPIRONE]
Not Active: IC50 [1] | Ki [1] | IC50 [2] | IC50 [3] | Ki [3] | IC50 [4] | Ki [4] | IC50 [5] | Ki [5] | IC50 [6] | Ki [6] | IC50 [7] | IC50 (Cytochrome P450 1A2) | Ki (Cytochrome P450 1A2) | IC50 (Cytochrome P450 2E1) | Ki (Cytochrome P450 2E1)

C[C@@]12C(=O)OC(=O)[C@]1(C)[C@H]1CC[C@@H]2O1 [CANTHARIDIN]
Not Active: IC50 [1] | Ki [1] | IC50 [2] | IC50 [3] | Ki [3] | IC50 [4] | Ki [4] | IC50 [5] | Ki [5] | IC50 [6] | Ki [6] | IC50 [7] | IC50 (Cytochrome P450 1A2) | Ki (Cytochrome P450 1A2) | IC50 (Cytochrome P450 2E1) | Ki (Cytochrome P450 2E1)

ClC(Cl)Cl [CHLOROFORM]
Not Active: IC50 [1] | Ki [1] | IC50 [2] | IC50 [3] | Ki [3] | IC50 [4] | Ki [4] | IC50 [5] | Ki [5] | IC50 [6] | Ki [6] | IC50 [7] | IC50 (Cytochrome P450 1A2) | Ki (Cytochrome P450 1A2) | IC50 (Cytochrome P450 2E1) | Ki (Cytochrome P450 2E1)

C=C1CC[C@H](O)C/C1=C/C=C1\CCC[C@]2(C)[C@@H]([C@H](C)CCCC(C)C)CC[C@@H]12 [CHOLECALCIFEROL]
Not Active: IC50 [1] | Ki [1] | IC50 [2] | IC50 [3] | Ki [3] | IC50 [4] | Ki [4] | IC50 [5] | Ki [5] | IC50 [6] | Ki [6] | IC50 [7] | IC50 (Cytochrome P450 1A2) | Ki (Cytochrome P450 1A2) | IC50 (Cytochrome P450 2E1) | Ki (Cytochrome P450 2E1)

C[N+](C)(C)CCO.[Cl-] [CHOLINE CHLORIDE]
Not Active: IC50 [1] | Ki [1] | IC50 [2] | IC50 [3] | Ki [3] | IC50 [4] | Ki [4] | IC50 [5] | Ki [5] | IC50 [6] | Ki [6] | IC50 [7] | IC50 (Cytochrome P450 1A2) | Ki (Cytochrome P450 1A2) | IC50 (Cytochrome P450 2E1) | Ki (Cytochrome P450 2E1)

CC(=O)OCC(=O)[C@@]1(O)CC[C@H]2[C@@H]3CCC4=CC(=O)CC[C@]4(C)[C@H]3C(=O)C[C@@]21C [CORTISONE ACETATE]
Not Active: IC50 [1] | Ki [1] | IC50 [2] | IC50 [3] | Ki [3] | IC50 [4] | Ki [4] | IC50 [5] | Ki [5] | IC50 [6] | Ki [6] | IC50 [7] | IC50 (Cytochrome P450 1A2) | Ki (Cytochrome P450 1A2) | IC50 (Cytochrome P450 2E1) | Ki (Cytochrome P450 2E1)

O=c1ccc2ccccc2o1 [COUMARIN]
Not Active: IC50 [1] | Ki [1] | IC50 [2] | IC50 [3] | Ki [3] | IC50 [4] | Ki [4] | IC50 [5] | Ki [5] | IC50 [6] | Ki [6] | IC50 [7] | IC50 (Cytochrome P450 1A2) | Ki (Cytochrome P450 1A2) | IC50 (Cytochrome P450 2E1) | Ki (Cytochrome P450 2E1)

CN(C)/N=N/c1[nH]cnc1C(N)=O [DACARBAZINE]
Not Active: IC50 [1] | Ki [1] | IC50 [2] | IC50 [3] | Ki [3] | IC50 [4] | Ki [4] | IC50 [5] | Ki [5] | IC50 [6] | Ki [6] | IC50 [7] | IC50 (Cytochrome P450 1A2) | Ki (Cytochrome P450 1A2) | IC50 (Cytochrome P450 2E1) | Ki (Cytochrome P450 2E1)

CC(=O)Nc1c(I)c(NC(C)=O)c(I)c(C(=O)O)c1I [DIATRIZOIC ACID]
Not Active: IC50 [1] | Ki [1] | IC50 [2] | IC50 [3] | Ki [3] | IC50 [4] | Ki [4] | IC50 [5] | Ki [5] | IC50 [6] | Ki [6] | IC50 [7] | IC50 (Cytochrome P450 1A2) | Ki (Cytochrome P450 1A2) | IC50 (Cytochrome P450 2E1) | Ki (Cytochrome P450 2E1)

COP(=O)(OC)OC=C(Cl)Cl [DICHLORVOS]
Not Active: IC50 [1] | Ki [1] | IC50 [2] | IC50 [3] | Ki [3] | IC50 [4] | Ki [4] | IC50 [5] | Ki [5] | IC50 [6] | Ki [6] | IC50 [7] | IC50 (Cytochrome P450 1A2) | Ki (Cytochrome P450 1A2) | IC50 (Cytochrome P450 2E1) | Ki (Cytochrome P450 2E1)

O=C(O)Cc1ccccc1Nc1c(Cl)cccc1Cl [DICLOFENAC]
Not Active: IC50 [1] | Ki [1] | IC50 [2] | IC50 [3] | Ki [3] | IC50 [4] | Ki [4] | IC50 [5] | Ki [5] | IC50 [6] | Ki [6] | IC50 [7] | IC50 (Cytochrome P450 1A2) | Ki (Cytochrome P450 1A2) | IC50 (Cytochrome P450 2E1) | Ki (Cytochrome P450 2E1)

C[C@H]1O[C@@H](O[C@H]2[C@@H](O)C[C@H](O[C@H]3[C@@H](O)C[C@H](O[C@H]4CC[C@@]5(C)[C@H](CC[C@@H]6[C@@H]5CC[C@]5(C)[C@@H](C7=CC(=O)OC7)CC[C@]65O)C4)O[C@@H]3C)O[C@@H]2C)C[C@H](O)[C@@H]1O [DIGITOXIN]
Not Active: IC50 [1] | Ki [1] | IC50 [2] | IC50 [3] | Ki [3] | IC50 [4] | Ki [4] | IC50 [5] | Ki [5] | IC50 [6] | Ki [6] | IC50 [7] | IC50 (Cytochrome P450 1A2) | Ki (Cytochrome P450 1A2) | IC50 (Cytochrome P450 2E1) | Ki (Cytochrome P450 2E1)
